Measured values: ChEMBL document CHEMBL6103644, “Efficient and Selective Biosynthesis of a Precursor-Directed FK506 Analogue: Paving the Way for Click Chemistry” (J Nat Prod, 2025)
Activity calls are given as the source filed them. No cut-off for these calls is given here.

Tests used:
CD4+ T cell [1] = test: Immunosuppressive activity in C57BL/6 mouse CD4+ T cells co-cultured with allogeneic bone marrow-derived BALB/c mouse dendritic cells assessed as reduction in CD4+ T cell numbers at cell cycle 4 at 5 nM incubated for 4 days by CellTrace Violet staining based flow cytometry; type: functional; details: time 4.0 day
[2] = Cytotoxicity against C57BL/6 mouse CD4+ T cells assessed as increase in cell death at 5 nM incubated for 4 days by Live/Dead staining based flow cytometry; type: toxicity; details: 96 h, 0.005 µM, time 4 day
[3] = Cytotoxicity against C57BL/6 mouse CD4+ T cells assessed as increase in cell death at >10 nM incubated for 4 days by Live/Dead staining based flow cytometry; type: toxicity; details: 96 h, 0.01 µM, time 4 day
[4] = Cytotoxicity against C57BL/6 mouse CD4+ T cells assessed as increase in cell death at 0.5 to 100 nM incubated for 4 days by Live/Dead staining based flow cytometry; type: toxicity; details: 96 h, 0.1 µM, dose 0.5-100 nM, time 4 day
CD4+ T cell [5] = test: Immunosuppressive activity in C57BL/6 mouse CD4+ T cells co-cultured with allogeneic bone marrow-derived BALB/c mouse dendritic cells assessed as inhibition of CD4+ T cell proliferation at 1 nM incubated for 4 days by CellTrace Violet staining based flow cytometry; type: functional; details: time 4.0 day

Compound	Activity (CD4+ T cell [1])	Activity [2]	Activity [3]	Activity [4]	inhibition (CD4+ T cell [5])
C#CC[C@@H]1/C=C(\C)C[C@H](C)C[C@H](OC)[C@H]2O[C@@](O)(C(=O)C(=O)N3CCCC[C@H]3C(=O)O[C@H](/C(C)=C/[C@@H]3CC[C@@H](O)[C@H](OC)C3)[C@H](C)[C@@H](O)CC1=O)[C@H](C)C[C@@H]2OC	Active	Non-toxic	Toxic		
C=CC[C@@H]1/C=C(\C)C[C@H](C)C[C@H](OC)[C@H]2O[C@@](O)(C(=O)C(=O)N3CCCC[C@H]3C(=O)O[C@H](/C(C)=C/[C@@H]3CC[C@@H](O)[C@H](OC)C3)[C@H](C)[C@@H](O)CC1=O)[C@H](C)C[C@@H]2OC [TACROLIMUS ANHYDROUS]				Toxic	Active
